In US7288527B2, “Inhibition of allergic contact dermatitis by N-L-alpha-aspartyl-L-phenylalanine 1-methyl ester” (priority 2004, dated 2007):
Residues, ends and D or L forms follow the SMILES beside them.

What was measured:
[1] = tested on: capsaicin burning sensation on the tongue; assay: Treatment of capsaicin irritation of the tongue (Example 6); format: in vivo, human; settings: dry powder, at least about 10 mg APM per 250 microliters of saliva
Method: A person eating spicy food seasoned with peppers is exposed to capsaicin, an irritant oil related to urushiol, causing an uncomfortable burning sensation on the tongue. APM or a derivative thereof is applied to the affected area as a dry powder in the amount of at least about 10 mg APM per 250 microliters of saliva, resulting in relief. Preferably, about 35 to about 80 mg of APM is applied to the area affected.

[2] = tested on: skin previously exposed to urushiol; assay: Treatment of allergic contact dermatitis with APM in a cream base (Example 1); format: in vivo; settings: thin film of APM in a cream base; after sixty (60) minutes
Excerpt: To an area of skin previously exposed to urushiol is applied a thin film of APM in a cream base. […] Further treatment may include washing the affected area to remove and displace urushiol dissolved in the applied lotion and followed by reapplication of APM containing cream or lotion.

[3] = tested on: human skin exposed to urushiol (poison sumac, poison ivy); assay: Treatment and prevention of urushiol-induced dermatitis on human skin (Example 3, Patient 1); format: in vivo; settings: topical lotion with 0.5 to 1 mg APM/ml, two to three times per day, also two packets Equal by mouth
Method: The goats frequently consumed and were in contact with both poison sumac and poison ivy abundant in their enclosure without experiencing symptoms.
A topical APM preparation was made by mixing 2 to 3 packets of Equal® brand sweetner (80-120 mg of APM) with approximately 170 ml (5.5 fluid ounces) of lotion containing Vaseline® Intensive Care® Water Resistant Moisturizing Lotion (Unilever United States, Inc.), resulting in a lotion with 0.5 to 1 mg APM/ml. Patient 1 had previously used the lotion base without effect. Patient 1 also took two packets of Equal® brand sweetener by mouth in response to a symptom of diarrhea, a condition known to be associated with urishiol.
A soap and water scrub of the affected area was done one hour after application of the cream, and the affected area allowed to air dry.
Additional affected areas were then discovered on Patient 1, and a lotion was prepared for Patient 1 to use on these areas as well as unaffected areas that could come in contact with poison ivy during their work. Patient 1 used additional topical APM preparation approximately two to three times per day.

[4] = tested on: capsaicin taste receptor (tongue); assay: Oral application of APM with capsaicin-containing red pepper sauce; format: in vivo
Excerpt: The variability in observable results in preventing dermatitis or topical irritation appear related to the amount of APM that is applied, the time and order of the therapeutic application, and the presence of receptors to which either the irritant oil or APM may bind.

[5] = tested on: capsaicin burning of the eye; assay: Alleviation of capsaicin burning of the eye (Example 7); format: in vivo, human; settings: about 10 mg per 250 microliters in sterile saline applied to the affected eye
Method: A kitchen worker is exposed to capsaicin oil from peppers during cooking preparation, the oil is transferred to their hands and then, by their hands, to their eyes, resulting in a burning sensation and pain. […] The application may be repeated in 15 min because tearing may dilute or wash away the active ingredients.

[6] = tested on: skin which may be exposed to urushiol; assay: Prevention of urushiol-induced dermatitis on human skin (Example 2); format: in vivo; settings: thin film of APM suspended in a petroleum cream base applied before exposure
Excerpt: To an area of skin which may be exposed to urushiol is applied a thin film of APM suspended in a petroleum cream base.

[7] = tested on: human rash secondary to urushiol exposure; assay: Treatment of rash caused by urushiol (Example 4); format: in vivo
Method: A human rash, with itching, in progress secondary to contact with an animal known to have had significant exposure to urushiol substances was arrested in 8 hours with 2 applications of aspartame in a Vaseline Intensive Care Lotion base (about 1.2 to 10 mg/ml). The itching ceased, and discomfort and irritation resolved within 8 hours.

[8] = tested on: capsaicin burning and pain of mucosa, eyes or nose; assay: APM against inadvertent mucosal contact with capsaicin cream (Example 8); format: in vivo, human; settings: preparation comprising 38 mg of APM per 5 ml applied to the affected area
Method: A patient is treated for arthritis with a capsaicin cream applied twice daily to the affected joint. Capsaicin is absorbed by the transdermal tissue and then transported to joint area. After an appropriate interval, for instance 2-5 days, significant reduction in swelling, heat, redness, and pain is observed. However, the patient also inadvertently contacts his or her urethra, periurethra tissues, vaginal mucosa, rectal mucosa, eyes, or nose with the capsaicin cream, resulting in a sensation of burning and pain in the affected area.

[9] = cited from earlier work

COC(=O)[C@H](Cc1ccccc1)NC(=O)[C@@H](N)CC(=O)O [APM, N-L-alpha-aspartyl-L-phenylalanine 1-methyl ester] (H-Asp-Phe-OMe)
burning sensation on the tongue [1]: relief | symptoms of allergic contact dermatitis [2]: significantly reduced | rash or reaction observed on the day after application [3]: no rash or reaction had occurred | APM response after long exposure to capsaicin ([4]; long duration of exposure to capsaicin leading to secondary effects): not as strong nor as quick | recognition of spicyness of red pepper sauce ([4]; oral application of APM before red pepper sauce): absence of recognition of the spicyness | effect on developed sensations of heat and irritation ([4]; red pepper sauce applied to the tongue first, APM applied after): displacement by APM of capsaicin from the taste receptor is manifested and recognized quickly | burning sensation of the eye [5]: the burning sensation is alleviated | symptoms of allergic contact dermatitis (prophylactic use) [6]: either do not appear or are significantly reduced | time to arrest of rash with itching ([7]; 2 applications of aspartame in Vaseline Intensive Care Lotion base (about 1.2 to 10 mg/ml)): 8 h | time until itching ceased and discomfort and irritation resolved ([7]; 2 applications, lotion base about 1.2 to 10 mg/ml): ≤ 8 h | state of rash overnight ([7]; overnight after 2 applications, lotion base about 1.2 to 10 mg/ml): the rash was gone | burning and pain in the affected area [8]: reducing or eliminating the burning and pain | maximum solubility in water ([9]; pH 2.2): 20 mg/mL | minimum solubility in water ([9]; pH 5.2): 13.5 mg/mL
